In US12605399B2, “Compositions for CFTR MRNA therapy” (TRANSLATE BIO, INC., priority 2020, dated 2026):

Test system: male CD1 mice
Experiment: Luciferase production in the lung after intratracheal FFL mRNA-LNP
Type: in vivo, mouse
Details: for potency as determined by the average radiance detected in mouse lungs: FFL mRNA-LNP, intratracheal, about 5 hours post-dose; for performance in liposomes administered through pulmonary delivery via nebulization: mouse, in vivo
Method: About 150 cationic lipids were tested. (FIG. 7). Each cationic lipid was used in preparing lipid nanoparticles encapsulating mRNA encoding firefly luciferase protein (FFL mRNA) according to methods known in the art. For example, suitable methods for mRNA encapsulation include methods described in International Publication Nos. WO2016/004318 and WO 2018/089801, which is hereby incorporated by reference in its entirety. The tested lipid nanoparticles comprised a lipid component consisting of a cationic lipid, a non-cationic lipid (DOPE), a PEG-modified lipid (DMG-PEG2K), and optionally cholesterol.
Lipid nanoparticle formulations comprising FFL mRNA were administered to male CD1 mice by a single intratracheal administration via nebulization using a Microsprayer®. At approximately 5 hours post-dose, the animals were dosed with luciferin by intraperitoneal injection and all animals were imaged using an IVIS imaging system to measure luciferase production in the lung. […] Some cationic lipids remarkably had greater than 50-fold increase in pulmonary protein expression as compared to other cationic lipids.

CCCCC/C=C\C/C=C\CCCCCCCC(=O)OCC(COC(=O)CCCCCCC/C=C\C/C=C\CCCCC)(COC(=O)CCCCCCC/C=C\C/C=C\CCCCC)NCCS(=O)(=O)NCCN(C)C [GL-TES-SA-DME-E18-2, 2-((2-(N-(2-(dimethylamino)ethyl)sulfamoyl)ethyl)amino)-2-((((9Z,12Z)-octadeca-9,12-dienoyl)oxy)methyl)propane-1,3-diyl (9Z,9′Z,12Z,12′Z)-bis(octadeca-9,12-dienoate)]
potency as determined by the average radiance detected in mouse lungs: particularly high potency | performance in liposomes administered through pulmonary delivery via nebulization: performed particularly well

CCCCC/C=C\C/C=C\CCCCCCCC(=O)OCC(COC(=O)CCCCCCC/C=C\C/C=C\CCCCC)(COC(=O)CCCCCCC/C=C\C/C=C\CCCCC)NCCS(=O)(=O)NCCCN(C)C [GL-TES-SA-DMP-E18-2]
potency as determined by the average radiance detected in mouse lungs: particularly high potency | performance in liposomes administered through pulmonary delivery via nebulization: performed particularly well

CCCCCCCCC(O)CN(CCCC(=O)OCCN1CC(C)N(CCOC(=O)CCCN(CC(O)CCCCCCCC)CC(O)CCCCCCCC)CC1C)CC(O)CCCCCCCC (stereo not shown) [HEP-E3-E10]
potency as determined by the average radiance detected in mouse lungs: particularly high potency | performance in liposomes administered through pulmonary delivery via nebulization: performed particularly well

CCCCCCCCC(O)CN(CCCCC(=O)OCCN1CC(C)N(CCOC(=O)CCCCN(CC(O)CCCCCCCC)CC(O)CCCCCCCC)CC1C)CC(O)CCCCCCCC (stereo not shown) [HEP-E4-E10]
potency as determined by the average radiance detected in mouse lungs: particularly high potency | performance in liposomes administered through pulmonary delivery via nebulization: performed particularly well

CC(C)CCCC(C)C1CCC2C3CC=C4CC(OC(=O)CCc5cnc[nH]5)CCC4(C)C3CCC12C (stereo not shown) [ICE, imidazole cholesterol ester, reference compound]
historical radiance/expression of pulmonary-delivered FFL mRNA LNP (mice, nebulized FFL mRNA in LNP with this cationic lipid): around 10^4 p/s/cm^2sr

CCCCCCCCOC(=O)CC(CC(=O)OCCCCCCCC)(OC(=O)CCN(C)C)C(=O)OCCCCCCCC [TL1-01D-DMA, trioctyl 2-((3-(dimethylamino)propanoyl)oxy)propane-1,2,3-tricarboxylate]
potency as determined by the average radiance detected in mouse lungs: particularly high potency | performance in liposomes administered through pulmonary delivery via nebulization: performed particularly well

CCCCCCCCCCCCCCOC(=O)CC(CC(=O)OCCCCCCCCCCCCCC)(OC(=O)CCN(C)C)C(=O)OCCCCCCCCCCCCCC [TL1-04D-DMA]
potency as determined by the average radiance detected in mouse lungs: particularly high potency | performance in liposomes administered through pulmonary delivery via nebulization: performed particularly well
